The results in this text go back to patent publication US7138399B2, “Alkoxypyridine-derivatives” (Altana Pharma AG, priority 2002, dated 2006).

Series [1] concerns the target human inducible NO-synthase (Homo sapiens, UniProt P35228). Description: Measurement of inducible NO-synthase activity ([3H]arginine conversion). The class given is biochemical. As to conditions: crude cytosolic fraction containing human inducible NO-synthase, arginine 0.1 μM, 45 to 60 min at 37° C.; for IC50: read-out: Inhibition of iNOS activity [measured as −logIC50 (mol/l)] (converted). The protocol: Measurement of Inducible NO-Synthase Activity
The assay is performed in 96-well microtiter F-plates (Greiner, Frickenhausen, FRG) in a total volume of 100 μl in the presence of 100 nM calmodulin, 226 μM CaCl2, 477 μM MgCl2, 5 μM flavin-adenine-dinucleotide (FAD), 5 μM flavin mononucleotide (FMN), 0.1 mM NADPH, 7 mM glutathione, 10 μM BH4 and 100 mM HEPES pH 7.2. Arginine concentrations are 0.1 μM for enzyme inhibition experiments. 150000 dpm of [^3H]arginine are added to the assay mixture. Enzyme reaction is started by the addition of 4 μg of a crude cytosolic fraction containing human inducible NO-synthase and the reaction mixture is incubated for 45 to 60 min at 37° C. Enzyme reaction is stopped by adding 10 μl of 2M MES-buffer pH 5.0. 50 μl of the incubation mixture are transferred into a MADP N65 filtration microtiter plate (Millipore, Eschborn, FRG) containing already 50 μl of AG-50W-X8 cation exchange resin (Biorad, München, FRG). The resin in the Na loaded form is pre-equilibrated in water and 70 μl (corresponding to 50 μl dry beads) are pipetted under heavy stirring with a 8 channel pipette into the filtration plate. After pipetting 50 μl of the enzyme reaction mixture onto the filtration plates, the plates are placed on a filtration manifold (Porvair, Shepperton, UK) and the flow through is collected in Pico scintillation plates (Packard, Meriden, Conn.). […] The total flow through of 125 μl is mixed with 175 μl of Microscint-40 scintillation cocktail (Packard) and the scintillation plate is sealed with TopSeal P-foil (Packard). Scintillation plates are counted in a szintillation counter.
For the measurement of inducible NO-synthase-inhibiting potencies of compounds increasing concentrations of inhibitors were included into the incubation mixture. IC50-values were calculated from the percent inhibition at given concentrations by nonlinear least square fitting.

Molecules are shown by their SMILES.

For the compound `COc1ccnc(CCc2nc3cc(I)cnc3[nH]2)c1` [compound 7, 2-[2-(4-Methoxypyridin-2-yl)ethyl]-6-iodo-3H-imidazo[4,5-b]pyridine], in series [1], the IC50 was 32.4 nM. Still for that read-out and setting: to `COc1ccnc(CCc2nc3cc(C(F)(F)F)cnc3[nH]2)c1` [compound 9, 2-[2-(4-Methoxypyridin-2-yl)ethyl]-6-trifluoromethyl-3H-imidazo[4,5-b]pyridine] belongs 89.1 nM; to `COc1ccnc(CCc2nc3cc(-c4ccccc4)cnc3[nH]2)c1` [compound 10, 2-[2-(4-Methoxypyridin-2-yl)ethyl]-6-phenyl-3H-imidazo[4,5-b]pyridine], 38.9 nM; to `COc1ccnc(CCc2nc3cc(C)cnc3[nH]2)c1` [compound 11, 2-[2-(4-Methoxypyridin-2-yl)ethyl]-6-methyl-3H-imidazo[4,5-b]pyridine], 69.2 nM.

Regarding `COc1ccnc(CCc2nc3cc(CCc4ccccc4)cnc3[nH]2)c1` [compound 14, 2-[2-(4-Methoxypyridin-2-yl)ethyl]-6-(2-phenylethyl)-3H-imidazo[4,5-b]pyridine], the IC50 in series [1] was 45.7 nM. For `COc1ccnc(CCc2nc3cc(-c4ccc(Cl)c(Cl)c4)cnc3[nH]2)c1` [compound 15, 2-[2-(4-Methoxypyridin-2-yl)ethyl]-6-(3,4-dichlorphenyl)-3H-imidazo[4,5-b]pyridine], the “Inhibition of iNOS activity [measured as −logIC50 (mol/l)]” value in series [1] was found to be 7.33. On the same count and under the same terms, under `COc1ccnc(CCc2nc3cc(-c4ccc(Br)cc4)cnc3[nH]2)c1` [compound 16, 2-[2-(4-Methoxypyridin-2-yl)ethyl]-6-(4-bromphenyl)-3H-imidazo[4,5-b]pyridine] stands 7.36.

`COc1ccnc(CCc2nc3cc(-c4ccc(C)cc4)cnc3[nH]2)c1` [compound 25, 2-[2-(4-Methoxypyridin-2-yl)ethyl]-6-p-tolyl-3H-imidazo[4,5-b]pyridine]: the IC50 in series [1] is 34.7 nM. On the same count and under the same terms, to `COc1ccnc(CCc2nc3cc(-c4cccnc4)cnc3[nH]2)c1` [compound 26, 2-[2-(4-Methoxypyridin-2-yl)ethyl]-6-(pyridin-3-yl)-3H-imidazo-[4,5-b]pyridine] belongs 89.1 nM.

Broadly, the melting point is the temperature, or range, at which the solid turns liquid. Compound `COc1ccnc(CCc2nc3cc(-c4ccc(N)cc4)cnc3[nH]2)c1` [compound 27, 2-[2-(4-Methoxypyridin-2-yl)ethyl]-6-(4-aminophenyl)-3H-imidazo-[4,5-b]pyridine] displayed a melting point of 117 to 119 °C. Besides, in series [1], the IC50 is 61.7 nM. On the same counts, the results for `COc1ccnc(CCc2nc3cc(-c4ccc(O)cc4)cnc3[nH]2)c1` [compound 28, 2-[2-(4-Methoxypyridin-2-yl)ethyl]-6-(4-hydroxyphenyl)-3H-imidazo-[4,5-b]pyridine] are 206 to 208 °C and 44.7 nM. On the same counts, the results for `COc1ccnc(CCc2nc3cc(-c4ccc(N(C)C)cc4)cnc3[nH]2)c1` [compound 29, 2-[2-(4-Methoxypyridin-2-yl)ethyl]-6-(4-N,N-dimethylaminophenyl)-3H-imidazo[4,5-b]pyridine] are 176 to 178 °C and 38 nM. `COc1ccnc(CCc2nc3cc(-c4ccc(C(F)(F)F)cc4)cnc3[nH]2)c1` [compound 30, 2-[2-(4-Methoxypyridin-2-yl)ethyl]-6-(4-trifluormethylphenyl)-3H-imidazo[4,5-b]pyridine]: the “Inhibition of iNOS activity [measured as −logIC50 (mol/l)]” value in series [1] turned out to be 7.55. `COc1ccnc(CCc2nc3cc(-c4ccc(OC)c(OC)c4)cnc3[nH]2)c1` [compound 31, 2-[2-(4-Methoxypyridin-2-yl)ethyl]-6-(3,4-dimethoxyphenyl)-3H-imidazo[4,5-b]pyridine] returned a melting point of 185 to 186 °C. Besides, the IC50 in series [1] was 75.9 nM. As for `COc1ccnc(CCc2nc3cc(-c4ccc(OCc5ccccc5)cc4)cnc3[nH]2)c1` [compound 32, 2-[2-(4-Methoxypyridin-2-yl)ethyl]-6-(4-benzyloxyphenyl)-3H-imidazo[4,5-b]pyridine], the melting point lay in the range of 161 to 162 °C. The IC50 in series [1] is 45.7 nM. For the compound `COc1ccnc(CCc2nc3cc(-c4ccc(OCc5ccccc5)c(F)c4)cnc3[nH]2)c1` [compound 33, 2-[2-(4-Methoxypyridin-2-yl)ethyl]-(4-benzyloxy-3-fluorophenyl)-3H-imidazo[4,5-b]pyridine], the “Inhibition of iNOS activity [measured as −logIC50 (mol/l)]” value in series [1] turned out to be 7.29. On to `COc1ccnc(CCc2nc3cc(-c4ccc(C#N)cc4)cnc3[nH]2)c1` [compound 34, 2-[2-(4-Methoxypyridin-2-yl)ethyl]-6-(4-cyanophenyl)-3H-imidazo[4,5-b]pyridine], for which the melting point fell in the range of 241 to 242 °C. Also, the IC50 in series [1] is 33.9 nM. On the same counts, the results for `COc1ccnc(CCc2nc3cc(-c4ccc(NC(C)=O)cc4)cnc3[nH]2)c1` [compound 36, N-(4-{2-[2-(4-Methoxypyridin-2-yl)ethyl]-3H-imidazo[4,5-b]pyridin-6-yl}phenyl)-acetamide] are 220 to 221 °C and 67.6 nM.

For the compound `COc1ccnc(CCc2nc3cc(-c4ccc(NS(=O)(=O)c5ccccc5)cc4)cnc3[nH]2)c1` [compound 37, N-(4-{2-[2-(4-Methoxypyridin-2-yl)ethyl]-3H-imidazo[4,5-b]pyridin-6-yl}phenyl)-benzenesulfonamide], the melting point lay in the range of 251 to 253 °C. Moreover, the IC50 in series [1] was 63.1 nM.
